How the values were obtained:
[1] = test system: tumors formed in mice implanted with TM4SF5-expressing cells (SNU449Tp); experiment: Tumors in nude mice implanted with TM4SF5-expressing cells, intraperitoneal TSAHC; type: in vivo
Protocol: Next, various SNU449 cell lines, expressing or not expressing TM4SF5, were injected into nude mice. 4-5 week-old female nude BALB/cAnNCrjBgi-nu mice (Orient. Co. Ltd), weighing about 20 g, were used. Animals were housed in sterilized cages, and given free access to sterilized water and feed. All procedures were carried out in the clean bench in which laminar flow was continuously maintained to provide a clean environment.
Nude mice were maintained under a light cycle of 12-hr light and 12-hr dark using indoor lamps, for biological cycle of day and night. Suspensions of SNU449 Cp, SNU449Tp, SNU449T16 and SNU449T16m cells were centrifuged, and the concentrated cells were counted using a hemocytometer to adjust them to a density of 1×10^7 cells/200 The prepared cells were subcutaneously injected into the flank of nude mice using a 1-ml syringe having a 26-gauge needle. Experimental animals were maintained according to the preclinical method for breeding of laboratory animals, Seoul National University, and were monitored for tumor formation by SNU449Tp cells.
The length and width of tumors formed in nude mice, prepared in Example 6, were measured one every two days using calipers. Tumor volume was calculated according to the following Equation: Volume (mm^3)=Length×Width2×½, Length: long diameter, Width: short diameter). […]

[2] = test system: p27^kip1, pS^10p27^kip1, pY^577FAK and α-SMA; experiment: Western blotting for TM4SF5-mediated protein expression (FIG. 46); type: cell-based, human
Protocol: Cell lysates, obtained under various experimental conditions, were prepared using RIPA buffer after cells under various conditions were washed with PBS. In special cases, employed cells were transfected with given expression vectors or infected with an adenovirus expressing an shRNA to TM4SF5 or a siRNA to p27^kip1. In addition, cells treated with 10 μM of cycloheximide for a given period of time were used. For such cell lysates, protein was quantified, and the same amounts of protein were used. Western blotting was performed using antibodies to phospho-Y^577FAK, phospho-Y^416Src, c-Src, RhoA, p120^ctn, β-catenin, pS^10p27^kip1, FAK, E-cadherin, ZO1, Rac1, p190RhoGAP, p27^kip1, GRAF, hKIS, desmoplakin, α-tubulin, α-catenin, and α-smooth muscle actin (α-SMA).

[3] = test system: cytosolic p27^kip1; experiment: Immunofluorescent staining for p27^kip1 (FIG. 47); type: cell-based, human; conditions: 449Tp cells
Protocol: (§1) When cells were transfected with given specific genes or infected with various viruses, they were used after being cultured for a given period of time. Cells treated with 10 mM lysophosphatidic acid (LPA) were used 1 hour after being attached to cover glasses. Immunofluorescent staining was carried out by preparing a slide for fluorescent analysis through incubation with a primary antibody against a target protein, washing out unbound antibody molecules, incubation with a fluorescein-conjugated secondary antibody and washing out unbound antibody molecules, and actin filament staininh was carried out with rhodamine-conjugated phalloidin. Antibodies used included antibodies against E-cadherin, β-catenin, FLAG, 4′-6-diamidino-2-phenylindole (DAPI), 5-brorno-2′-deoxy-uridine (BrdU), p27^kip1, ZO1 (zonula occludens-1), and the like. Immunofluorescent stained cover glasses were placed on slides and observed under a fluorescence microscope or a confocal laser scanning microscope.

[4] = test system: TM4SF5-expressing cells; experiment: Immunostaining for DNA and the actin cytoskeleton, cell shape (FIG. 49); type: cell-based, human
Protocol: as §1

[5] = test system: cells endogenously expressing TM4SF5; experiment: Growth/proliferation of cells endogenously expressing TM4SF5 (FIG. 51); type: cell-based
[6] = test system: SNU449Tp cells; experiment: Invasion into collagen gel, microcarrier beads (FIG. 66); type: cell-based, human; conditions: 20 μM, 18 hrs
Protocol: Cell invasiveness was analyzed using Cytodex-3 microcarriers. SNU449 Cp and SNU449Tp cells were grown on microcarrier beads in an attached state, and cultured in a collagen gel matrix, including a serum-containing medium at 37° C.
SNU449 Cp cells and SNU449Tp cells were allowed to attach to microcarrier beads, and cultured in the presence of 20 μM of TSAHC for 18 hrs. Bead-cells were cultured in a collagen gel matrix, including a serum-containing medium, and observed for invasion into the collagen gel at given time points.

[7] = test system: SNU449Tp cells; experiment: Invasion into Matrigel, Transwell chamber (FIG. 67); type: cell-based, human; conditions: cultured for 24 hrs
Protocol: The invasiveness of SNU449Tp cells was also analyzed using Boyden Transwell chamber 24 well plates, as mentioned in Example 7-(1). Matrigel was added to the insert of the plates, and was allowed to solidify at 37° C. Cells were cultured as described above. After 24 hrs, cells on the upper surface of the membrane of the insert chamber were completely removed by wiping with a cotton swab. As a result, after […], cells that had invaded the lower side of the membrane were stained.
According to the same method described above, cells were seeded in the Transwell chamber, coated with a thick layer of Matrigel, and cultured for 24 hrs. Cells that invaded the Matrigel were counted, and the results are shown as a graph.

[8] = test system: MMP-2 and MMP-9; experiment: Gelatin zymography of culture supernatants (FIG. 68); type: cell-based, human; conditions: 20 μM, 24 hrs
Protocol: The substrate degradation activity of secreted MMPs was investigated using gelatin zymography. Cell lines, indicated in FIG. 62, were cultured in 60-mm culture dishes. After 18 hrs, the medium was exchanged with serum-free medium, and cells were cultured for a further 24 hrs. Culture supernatants were collected to obtain secreted MMPs, and were then concentrated. Samples were electrophoresed on the running SDS-PAGE gel containing gelatin as a substrate for MMPs under reducing conditions. The gel was washed in 1% Triton X-100 to remove SDS, thus renaturing the enzymes. The gel was then incubated in enzyme reaction buffer (10 mM CaCl2, 0.15 M NaCl, 50 mM Tris-HCl, pH 7.5) at 37° C. for 18 hrs. The gel was stained with 0.5% Coomassie Brilliant Blue R250 for 3 hrs, and destained until clear bands appeared in 10% acetic acid and 30% methanol.
In addition, Cp cells and Tp cells were treated with 20 μM of TSAHC for 24 hrs. The medium was exchanged with serum-free medium, and cells were cultured for a further 18 hrs. Culture supernatants were collected, concentrated, and analyzed using zymography, as described above.

SMILES: Cc1ccc(S(=O)(=O)Nc2ccc(C(=O)/C=C/c3ccc(O)cc3)cc2)cc1 [Compound 1, 4′-(p-toluenesulfonylamino)-4-hydroxychalcone]
- tumor size decreased by ([1]; 5 mg/kg intraperitoneally once every two days for three weeks): 45%
- tumor size decreased by ([1]; 50 mg/kg intraperitoneally once every two days for three weeks): 88%
- expression levels of p27^kip1, pS^10p27^kip1, pY^577FAK and α-SMA [2]: effectively reduce TM4SF5-mediated high expression levels of p27^kip1, pS^10p27^kip1, pY^577FAK and α-SMA
- cytosolic p27^kip1 levels [3]: decrease in cytosolic p27^kip1 levels
- cell shape [4]: returned the elongated cell shape to the same polygonal shape as that of TM4SF5-null control cells
- growth or proliferation of cells endogenously expressing TM4SF5 [5]: inhibited the growth or proliferation of cells endogenously expressing TM4SF5
- TM4SF5-mediated cell invasion into collagen gel [6]: inhibit TM4SF5-mediated cell invasion into collagen gel
- invasion into Matrigel [7]: effectively inhibit invasion into Matrigel
- TM4SF5-mediated activity of MMPs [8]: inhibit the TM4SF5-mediated activity of MMPs

Source: patent US9072698B2, “Method for screening anti-cancer compounds inhibiting function of TM4SF5 and anti-cancer composition containing chalcone compounds” (Seoul National University Industry Foundation, priority 2006, dated 2015)
